Measured values taken from article PMC12299890 (Pharmaceuticals, 2025).
Read-outs that look alike come from different tables or passages of the source.

Test: Serum concentration and pharmacokinetics of SCI after oral gavage in Wistar rats
Format: in vivo, Wistar rat
Conditions: for AUC(0-t) / Cmax / Tmax / k el / MRT / half-life: male, Wistar, rat, po, 10 mg/kg; for k el: read-out: K (elimination rate constant) (converted); for MRT: read-out: MRT (mean residence time); for half-life: read-out: T0.5e (elimination half-life) (converted)
Description: All procedures were performed according to the Local Ethical Committee of Experiments on Animals guidelines in Olsztyn, Poland. The experiment was conducted in the same way as described by Antonowski et al.. Briefly, the experiment was performed on male Wistar rats (n = 6). Rats were maintained in ventilated rooms under a standard day photoperiod (12:12 h light–dark) as well as with lights on from 700 to 1900 h at 21 °C. All rats had free access to food and water. At 42 days of age, rats were randomized into experimental groups (Table 1 and Table 4).
Before the administration of cyclitol (10 mg/kg), the rats were fasting for 12 h (Table 1). […] Access to water was unlimited during the experiments. The study group (n = 6) was divided into two subgroups (n = 3 rats per subgroup). This practice allows for the use of only 6 rats for the entire experiment in accordance with the 3 Rs principle. Rats received the compound at a dose of 10 mg/kg body weight. Rats were weighed before starting the compound administration. Cyclitol was administered to the rats from the study group using a stainless-steel gastric tube with a ball tip (manufacturer—Agnthos, curved gastric tube, 16G, 3 mm tip, 75 mm). Cyclitol was dissolved in distilled water to a maximum volume of 1 mL. The prepared solution was administered to the animal.
Blood samples were collected into Eppendorf tubes and were centrifuged at 2500× g for 10 min at 8 °C the following day. Blood was harvested from the tail at a specific time. […] Serum was stored at −80 °C for subsequent analyses.
The analysis is described in detail by Antonowski and co-workers. Briefly, the first step was to remove the protein, then concentrate the sample in a speed vacuum evaporator to dryness. Next, samples were analyzed using the high-resolution gas chromatography method. We used a gas chromatograph GC2010Plus (Shimadzu, Tokyo, Japan) with a capillary column ZEBRON ZB-1 (15 m length, 0.25 mm diameter, and 0.1 μm film thickness, Phenomenex, Torrance, CA, USA). Helium was used as a carrier gas (at a flow rate of 1.18 mL min^−1). […] Finally, scyllo-inositol was quantified by using a standard.
The PK parameters were calculated using PK Solver. PKSolver is an add-in program for pharmacokinetic and pharmacodynamic data analysis […]. […] The area under the drug concentration–time curve from time zero to the time of the last quantifiable concentration (AUClast) was calculated using the trapezoidal rule. The volume over which the drug was distributed (Vd) and clearance (CL) were conducted by PK Solver. […] Nevertheless, we estimated K by log-linear regression analysis on data points on the terminal log-linear phase. Noncompartmental analysis is generally the preferred methodology to use in that it requires fewer assumptions than model-based approaches. We presented the results for individual rats, subgroups of rats, and for all subjects studied. The content of scyllo-inositol was calculated from the standard curves of appropriate components. To determine the terminal phase, […] was sufficient.
An analysis of all parameters was carried out with GraphPad Prism software (Version 10 Graph Pad Software Inc., La Jolla, CA, USA). Data are expressed as means ± SEM or individual data. Briefly, AUClast was calculated using the trapezoidal method. The T0.5 of oral administration was calculated as 0.693/K.

[1] = serum, Mean of rats 1–3 ± SEM, oral 10 mg/kg
[2] = serum, Mean of rats 1–3 ± SEM, serum, oral 10 mg/kg
[3] = serum, Mean of rats 4–6 ± SEM, oral 10 mg/kg
[4] = serum, Mean of rats 4–6 ± SEM, serum, oral 10 mg/kg
[5] = serum, Rat No 1, serum, oral 10 mg/kg
[6] = serum, Rat No 2, serum, oral 10 mg/kg
[7] = serum, Rat No 3, serum, oral 10 mg/kg
[8] = serum, Rat No 4, serum, oral 10 mg/kg
[9] = serum, Rat No 5, serum, oral 10 mg/kg
[10] = serum, Rat No 6, serum, oral 10 mg/kg
[11] = serum, mean serum profile of six rats, oral 3.92 mg SCI (10 mg/kg)
[12] = mean serum profile of six rats, oral 3.92 mg SCI (10 mg/kg)

AUC(0-t) [1]: 36400 ± 3390 ng·h/mL | Cmax [1]: 6730 ± 291 ng/mL | Tmax [1]: 1.33 ± 0.167 h | k el [2]: 0.000237 s⁻¹ | MRT [2]: 36.2 ± 20.7 h | half-life [2]: 25.1 ± 14.3 h | AUC(0-t) [3]: 19800 ± 4260 ng·h/mL | Cmax [3]: 4900 ± 874 ng/mL | Tmax [3]: 2.67 ± 0.667 h | k el [4]: 0.000126 s⁻¹ | MRT [4]: 3.6 ± 1.48 h | half-life [4]: 2.5 ± 1.02 h | AUC(0-t) (serum, Rat No 1, oral 10 mg/kg): 40800 ng·h/mL | Cmax (serum, Rat No 1, oral 10 mg/kg): 7200 ng/mL | Tmax (serum, Rat No 1, oral 10 mg/kg): 1.5 h | k el [5]: 0.0007 s⁻¹ | MRT [5]: 0.397 h | half-life [5]: 0.275 h | AUC(0-t) (serum, Rat No 2, oral 10 mg/kg): 38600 ng·h/mL | Cmax (serum, Rat No 2, oral 10 mg/kg): 6200 ng/mL | Tmax (serum, Rat No 2, oral 10 mg/kg): 1.5 h | k el [6]: 3.85e-06 s⁻¹ | MRT [6]: 72.1 h | half-life [6]: 50 h | AUC(0-t) (serum, Rat No 3, oral 10 mg/kg): 29700 ng·h/mL | Cmax (serum, Rat No 3, oral 10 mg/kg): 6800 ng/mL | Tmax (serum, Rat No 3, oral 10 mg/kg): 1 h | k el [7]: 7.67e-06 s⁻¹ | MRT [7]: 36.3 h | half-life [7]: 25.1 h | AUC(0-t) (serum, Rat No 4, oral 10 mg/kg): 11400 ng·h/mL | Cmax (serum, Rat No 4, oral 10 mg/kg): 3200 ng/mL | Tmax (serum, Rat No 4, oral 10 mg/kg): 2 h | k el [8]: 0.000253 s⁻¹ | MRT [8]: 1.1 h | half-life [8]: 0.761 h | AUC(0-t) (serum, Rat No 5, oral 10 mg/kg): 25300 ng·h/mL | Cmax (serum, Rat No 5, oral 10 mg/kg): 6100 ng/mL | Tmax (serum, Rat No 5, oral 10 mg/kg): 4 h | k el [9]: 4.47e-05 s⁻¹ | MRT [9]: 6.21 h | half-life [9]: 4.31 h | AUC(0-t) (serum, Rat No 6, oral 10 mg/kg): 22600 ng·h/mL | Cmax (serum, Rat No 6, oral 10 mg/kg): 5400 ng/mL | Tmax (serum, Rat No 6, oral 10 mg/kg): 2 h | k el [10]: 7.95e-05 s⁻¹ | MRT [10]: 3.5 h | half-life [10]: 2.42 h | AUC(0-t) [11]: 23500 ng·h/mL | Cmax [11]: 5930 ng/mL | Tmax [11]: ~1.5 h | k el [11]: 1.91e-05 s⁻¹ | MRT [11]: 14.5 h | half-life [11]: 10.1 h | CL [12]: 0.167 L/h | Vd [12]: 2.43 L | Time of highest average serum concentration (rats no. 1–3 (sampled 0–1.5, 12, 24 h), oral 10 mg/kg): 1.5 h | Time of highest average serum concentration (rats no. 4–6 (sampled 2–48 h), oral 10 mg/kg): 2 h | Time of first measurement of SCI concentration greater than 0 mg/L (serum, after oral 10 mg/kg): 30 min
Compound: O[C@H]1[C@H](O)[C@@H](O)[C@H](O)[C@@H](O)[C@@H]1O [SCI, scyllo-inositol]
Side effects of SCI supplementation noticed during the study (oral 10 mg/kg, up to 48 h): no side effects
